Drawing on ChEMBL document CHEMBL4477227, “Synthesis and antibacterial evaluation of macrocyclic diarylheptanoid derivatives” (Bioorg Med Chem Lett, 2016), this text covers MIC for 11 compounds.

The subject of one test is Proteus mirabilis. Nature of the test: Antibacterial activity against Proteus mirabilis ATCC 25933 by microbroth dilution method. The format is functional. Background: Dilution methods test growth across graded concentrations, often in twofold steps.
The subject of another test is Pseudomonas aeruginosa. Nature of the test: Antibacterial activity against Pseudomonas aeruginosa PAO1 by microbroth dilution method. The format is functional.
A further test has as its system Enterococcus faecalis. Nature of the test: Antibacterial activity against Enterococcus faecalis ATCC 33186 by microbroth dilution method. The format is functional. To be noted: Enterococcus faecalis, ATCC 33186; read-out: MIC.
Test [1] deals with Mycobacterium tuberculosis. Description: Antitubercular activity against Mycobacterium tuberculosis H37Rv by microbroth dilution method. To be noted: Mycobacterium tuberculosis, H37Rv; read-out: MIC. It is filed as functional.
For test [2], the system named is Escherichia coli. Nature of the test: Antibacterial activity against Escherichia coli harboring TolC deletion mutant by microbroth dilution method. The conditions noted are these: Escherichia coli; read-out: MIC. The format is functional.
The subject of the next test is Streptococcus pneumoniae. Description: Antibacterial activity against Streptococcus pneumoniae R6 by microbroth dilution method. The format is functional. To be noted: Streptococcus pneumoniae, R6; read-out: MIC.
The test system of test [3] is Escherichia coli. Description: Antibacterial activity against Escherichia coli K-12 by microbroth dilution method. The format is functional.
For another test, the system named is Burkholderia cepacia. Description: Antibacterial activity against Burkholderia cepacia ATCC 25416 by microbroth dilution method. It is filed as functional.
The next test deals with Klebsiella pneumoniae. Nature of the test: Antibacterial activity against Klebsiella pneumoniae ATCC 33495 by microbroth dilution method. It is filed as functional.
For a further test, the system named is Acinetobacter baumannii. Nature of the test: Antibacterial activity against Acinetobacter baumannii ATCC 19606 by microbroth dilution method. It is filed as functional, ATCC 19606 = CIP 70.34 = JCM 6841. The conditions noted are these: Acinetobacter baumannii, ATCC 19606 = CIP 70.34 = JCM 6841; read-out: MIC.
For test [4], the system named is Staphylococcus aureus. Description: Antibacterial activity against methicillin-sensitive Staphylococcus aureus ATCC 29213 by microbroth dilution method. The conditions noted are these: Staphylococcus aureus, ATCC 29213; read-out: MIC. It is filed as functional.
A further test relates to Bacillus subtilis. Nature of the test: Antibacterial activity against Bacillus subtilis ATCC 23857 by microbroth dilution method. It is filed as functional. To be noted: Bacillus subtilis, ATCC 23857; read-out: MIC.
A further test has as its system Proteus vulgaris. Description: Antibacterial activity against Proteus vulgaris ATCC 33420 by microbroth dilution method. The format is functional.
The subject of another test is Bacillus anthracis. Description: Antibacterial activity against Bacillus anthracis Sterne 34F2 by microbroth dilution method. The format is functional. To be noted: Bacillus anthracis, Sterne 34F2; read-out: MIC.
Test [5] has as its system Staphylococcus aureus. Nature of the test: Antibacterial activity against methicillin-resistant Staphylococcus aureus NRS70 by microbroth dilution method. The conditions noted are these: Staphylococcus aureus, NRS70; read-out: MIC. It is filed as functional.
For a further test, the system named is Streptococcus pyogenes. Description: Antibacterial activity against Streptococcus pyogenes ATCC 700294 by microbroth dilution method. The format is functional. The conditions noted are these: Streptococcus pyogenes, ATCC 700294; read-out: MIC.

The structures appear in SMILES notation. Values after ≈ are worked out from the molar mass of the structure shown.

For `COc1ccc2cc1Oc1cc(ccc1OC)CCC(OC(=O)NCc1ccccc1)CCCC2` (stereo unspecified), the minimal inhibitory concentration (MIC) (against Proteus mirabilis; in the test with Pseudomonas aeruginosa; with Enterococcus faecalis; in test [1]; in the test with Escherichia coli [2]; in the test with Streptococcus pneumoniae) was > 100 µg/mL throughout. For the same compound, the MIC in the test with Escherichia coli [3], against Burkholderia cepacia, in the test with Klebsiella pneumoniae, in the test on Acinetobacter baumannii, with Staphylococcus aureus [4] and in the test with Bacillus subtilis was > 100 µg/mL in each case. Also, the minimal inhibitory concentration (MIC) against Proteus vulgaris, with Bacillus anthracis, with Staphylococcus aureus [5] and in the test on Streptococcus pyogenes was > 100 µg/mL in each case.
As to `CCNC1CCCCc2ccc(OC)c(c2)Oc2cc(ccc2OC)CC1` (stereo unspecified), the minimum inhibitory concentration (MIC) (usually the smallest concentration in the dilution series that meets the test's criterion for growth inhibition) against Proteus mirabilis is > 100 µg/mL; in the test on Pseudomonas aeruginosa, > 100 µg/mL; with Enterococcus faecalis, > 100 µg/mL; in test [1], 100 µg/mL (≈ 271 µM); in the test with Escherichia coli [2], > 100 µg/mL; in the test with Streptococcus pneumoniae it was > 100 µg/mL. For the same compound, the MIC against Escherichia coli [3], in the test on Burkholderia cepacia, in the test with Klebsiella pneumoniae, in the test on Acinetobacter baumannii, in the test with Staphylococcus aureus [4] and with Bacillus subtilis was > 100 µg/mL throughout. The MIC against Proteus vulgaris, in the test with Bacillus anthracis, in the test with Staphylococcus aureus [5] and in the test on Streptococcus pyogenes was > 100 µg/mL each time.
On to `CCN(CC)C1CCCCc2ccc(OC)c(c2)Oc2cc(ccc2OC)CC1` (stereo unspecified), for which the MIC in the test with Proteus mirabilis is > 100 µg/mL; with Pseudomonas aeruginosa, > 100 µg/mL; with Enterococcus faecalis it was > 100 µg/mL; in [1], 100 µg/mL (≈ 252 µM); in the test on Escherichia coli [2] it was > 100 µg/mL; in the test with Streptococcus pneumoniae, > 100 µg/mL. For the same compound, the minimum inhibitory concentration (MIC) against Escherichia coli [3], in the test on Burkholderia cepacia, with Klebsiella pneumoniae, in the test with Acinetobacter baumannii, with Staphylococcus aureus [4] and in the test on Bacillus subtilis was > 100 µg/mL throughout. In addition, the MIC with Proteus vulgaris, with Bacillus anthracis, with Staphylococcus aureus [5] and in the test with Streptococcus pyogenes was > 100 µg/mL throughout.
Turning to `Oc1ccc2cc1Oc1cc(ccc1O)CCC(NCc1ccccc1)CCCC2` (stereo unspecified), the MIC against Proteus mirabilis is > 100 µg/mL; against Pseudomonas aeruginosa, > 100 µg/mL; with Enterococcus faecalis, > 50 µg/mL; in [1] it was 100 µg/mL (≈ 248 µM); in the test on Escherichia coli [2], 50 µg/mL (≈ 124 µM); with Streptococcus pneumoniae, > 50 µg/mL. The MIC against Escherichia coli [3] was > 50 µg/mL; in the test on Burkholderia cepacia, > 100 µg/mL; in the test on Klebsiella pneumoniae, > 100 µg/mL; in the test on Acinetobacter baumannii, > 50 µg/mL; in the test on Staphylococcus aureus [4], > 50 µg/mL; in the test on Bacillus subtilis it was > 50 µg/mL. For the same compound, the MIC is > 100 µg/mL with Proteus vulgaris, > 50 µg/mL in the test with Bacillus anthracis, > 50 µg/mL with Staphylococcus aureus [5] and > 50 µg/mL in the test with Streptococcus pyogenes.
As to `COc1ccc2cc1Oc1cc(ccc1OC)CCC(OC(=O)NCCc1ccccc1)CCCC2` (stereo unspecified), the minimum inhibitory concentration (MIC) (in the test with Proteus mirabilis; in the test with Pseudomonas aeruginosa; in the test with Enterococcus faecalis; in test [1]; in the test with Escherichia coli [2]; in the test with Streptococcus pneumoniae) was > 100 µg/mL in each case. In addition, the MIC in the test on Escherichia coli [3], against Burkholderia cepacia, in the test with Klebsiella pneumoniae, in the test with Acinetobacter baumannii, in the test with Staphylococcus aureus [4] and with Bacillus subtilis was > 100 µg/mL throughout. Besides, the minimal inhibitory concentration (MIC) against Proteus vulgaris, with Bacillus anthracis, with Staphylococcus aureus [5] and with Streptococcus pyogenes was > 100 µg/mL each time.
As for `COc1ccc2cc1Oc1cc(ccc1OC)CCC(NCCN(C)C)CCCC2` (stereo unspecified), the MIC in the test with Proteus mirabilis was > 100 µg/mL; against Pseudomonas aeruginosa it was > 100 µg/mL; with Enterococcus faecalis it was > 100 µg/mL; in test [1] it was 100 µg/mL (≈ 242 µM); in the test on Escherichia coli [2], > 100 µg/mL; in the test on Streptococcus pneumoniae, > 100 µg/mL. In addition, the MIC is > 100 µg/mL in the test with Escherichia coli [3]; > 100 µg/mL in the test with Burkholderia cepacia; > 100 µg/mL in the test with Klebsiella pneumoniae; > 100 µg/mL in the test on Acinetobacter baumannii; > 100 µg/mL in the test on Staphylococcus aureus [4]; 100 µg/mL (≈ 242 µM) in the test on Bacillus subtilis. Also, the minimum inhibitory concentration (MIC) in the test on Proteus vulgaris, in the test on Bacillus anthracis, in the test on Staphylococcus aureus [5] and with Streptococcus pyogenes was > 100 µg/mL in each case.
With `COc1ccc2cc1Oc1cc(ccc1OC)CCC(N1CCN(C)CC1)CCCC2` (stereo unspecified), the MIC against Proteus mirabilis was > 100 µg/mL; with Pseudomonas aeruginosa, > 100 µg/mL; with Enterococcus faecalis, 100 µg/mL (≈ 236 µM); in test [1], 50 µg/mL (≈ 118 µM); in the test on Escherichia coli [2], 50 µg/mL (≈ 118 µM); with Streptococcus pneumoniae it was 100 µg/mL (≈ 236 µM). For the same compound, the MIC with Escherichia coli [3] was > 100 µg/mL; with Burkholderia cepacia, > 100 µg/mL; against Klebsiella pneumoniae it was > 100 µg/mL; with Acinetobacter baumannii, 100 µg/mL (≈ 236 µM); in the test with Staphylococcus aureus [4] it was 100 µg/mL (≈ 236 µM); with Bacillus subtilis it was 50 µg/mL (≈ 118 µM). Besides, the minimal inhibitory concentration (MIC) was > 100 µg/mL in the test with Proteus vulgaris, 100 µg/mL (≈ 236 µM) in the test with Bacillus anthracis, 50 µg/mL (≈ 118 µM) in the test with Staphylococcus aureus [5] and > 100 µg/mL with Streptococcus pyogenes.
With `COc1ccc2cc1Oc1cc(ccc1OC)CCC(NCc1ccc(C(F)(F)F)cc1)CCCC2` (stereo unspecified), the minimum inhibitory concentration (MIC) against Proteus mirabilis was > 100 µg/mL; with Pseudomonas aeruginosa, > 100 µg/mL; in the test on Enterococcus faecalis, > 100 µg/mL; in test [1], 25 µg/mL (≈ 50 µM); in the test with Escherichia coli [2], 6.25 µg/mL (≈ 12.5 µM); in the test on Streptococcus pneumoniae it was > 100 µg/mL. Further, the minimal inhibitory concentration (MIC) with Escherichia coli [3] was > 100 µg/mL; with Burkholderia cepacia it was > 100 µg/mL; in the test on Klebsiella pneumoniae it was > 100 µg/mL; with Acinetobacter baumannii, > 100 µg/mL; in the test with Staphylococcus aureus [4] it was > 100 µg/mL; with Bacillus subtilis it was 12.5 µg/mL (≈ 25 µM). Further, the MIC is > 100 µg/mL with Proteus vulgaris, 12.5 µg/mL (≈ 25 µM) in the test with Bacillus anthracis, 12.5 µg/mL (≈ 25 µM) in the test on Staphylococcus aureus [5] and 50 µg/mL (≈ 100 µM) in the test with Streptococcus pyogenes.
Regarding `COc1ccc2cc1Oc1cc(ccc1OC)CCC(N(CCO)CCO)CCCC2` (stereo unspecified), the MIC (in the test with Proteus mirabilis; against Pseudomonas aeruginosa; in the test on Enterococcus faecalis; in test [1]; with Escherichia coli [2]; with Streptococcus pneumoniae) was > 100 µg/mL each time. In addition, the MIC with Escherichia coli [3], in the test on Burkholderia cepacia, in the test on Klebsiella pneumoniae, in the test with Acinetobacter baumannii, in the test on Staphylococcus aureus [4] and in the test on Bacillus subtilis was > 100 µg/mL in each case. Moreover, the minimum inhibitory concentration (MIC) against Proteus vulgaris, in the test with Bacillus anthracis, in the test on Staphylococcus aureus [5] and with Streptococcus pyogenes was > 100 µg/mL throughout.
Turning to `COc1ccc2cc1Oc1cc(ccc1OC)CCC(Nc1ccc(Cl)cc1)CCCC2` (stereo unspecified), the MIC (with Proteus mirabilis; in the test with Pseudomonas aeruginosa; in the test on Enterococcus faecalis; in test [1]; with Escherichia coli [2]; in the test on Streptococcus pneumoniae) was > 100 µg/mL each time. Further, the MIC with Escherichia coli [3], in the test with Burkholderia cepacia, in the test on Klebsiella pneumoniae, in the test on Acinetobacter baumannii, in the test on Staphylococcus aureus [4] and with Bacillus subtilis was > 100 µg/mL throughout. The MIC with Proteus vulgaris, in the test on Bacillus anthracis, with Staphylococcus aureus [5] and with Streptococcus pyogenes was > 100 µg/mL throughout.
As to `COc1ccc2cc1Oc1cc(ccc1OC)CCC(OC(=O)Nc1ccc(F)cc1)CCCC2` (stereo unspecified), the MIC with Proteus mirabilis is > 100 µg/mL; in the test with Pseudomonas aeruginosa, > 100 µg/mL; with Enterococcus faecalis it was 50 µg/mL (≈ 104 µM); in test [1], > 100 µg/mL; in the test on Escherichia coli [2], > 100 µg/mL; in the test with Streptococcus pneumoniae, > 100 µg/mL. The minimal inhibitory concentration (MIC) in the test on Escherichia coli [3], against Burkholderia cepacia, in the test with Klebsiella pneumoniae, with Acinetobacter baumannii, in the test on Staphylococcus aureus [4] and with Bacillus subtilis was > 100 µg/mL each time. Further, the minimum inhibitory concentration (MIC) against Proteus vulgaris was > 100 µg/mL; in the test with Bacillus anthracis it was > 100 µg/mL; in the test on Staphylococcus aureus [5], 25 µg/mL (≈ 52.1 µM); with Streptococcus pyogenes, > 100 µg/mL.
